Data on nine compounds can be found in article PMC7554884, “Small Molecule Inhibitors of DYRK1A Identified by Computational and Experimental Approaches” (International Journal of Molecular Sciences, 2020).

Each structure is given as a SMILES string. Read-outs that look alike come from different tables or passages of the source. A value given as a limit tells only on which side of the number the result lay.

In general, IC50 refers to the concentration that inhibits the measured activity by half. One may read the inhibition as the share of the control response that was lost under treatment. As a reminder, the % inhibition is the change of the read-out against control, counted positive when it falls. Higher therefore signals strong suppression.

One assay relates to GSK3β. The conditions noted are these: read-out: IC50 against GSK3β, cited from earlier work.
The target in a further assay is T1, DYRK1A(h) (Homo sapiens, UniProt Q13627).
T1 construct: purchased Eurofins Scientific Inc. Korea (contract assay service)
The experiment in a line: In vitro enzymatic assay (Eurofins, radiometric 33P-ATP). The conditions noted are these: for inhibition at 10 µM / % inhibition at 10 μM: DYRK1A; for IC50: read-out: IC50 values against DYRK1A. It is filed as biochemical. As to the method:
Enzymatic assays were performed by Eurofins Scientific Inc. Korea (Brussels, Belgium). […] The reaction was initiated by the addition of the MgATP mix. After incubation for 40 min at room temperature, the reaction was stopped by the addition of 3% phosphoric acid solution. Then, 10 μL of the reaction was then spotted onto a P30 filtermat and washed three times for 5 min in 75 mM phosphoric acid and once in methanol prior to drying and scintillation counting. […] All assays were performed in duplicate, and the average IC50 value was reported.

Another assay concerns DYRK1A. Set-up: method as in PMID 30170319. To be noted: staurosporine; read-out: IC50 against DYRK1A; cited from earlier work.
Where [1] appears, read: as summarised in the discussion.

For `N#Cc1ccc2[nH]c(O)c(-c3ccc(CN4CCOCC4)cn3)c2c1` [AZD1080, 2-hydroxy-3-(5-(morpholinomethyl)pyridin-2-yl)-1H-indole-5-carbonitrile, reference compound], the IC50 with GSK3β (AZD1080) was 0.031 µM; on DYRK1A(h) (duplicate, average) it was 2.91 µM. 10 µM produced 71% inhibition at DYRK1A(h).

At DYRK1A(h), `CC(C)c1nn(C)cc1-c1nc2c(N3CCN(Cc4cccnc4)CC3)c(Br)cnc2[nH]1` [Compound 1, 6-bromo-2-(3-isopropyl-1-methyl-1H-pyrazol-4-yl)-7-(4-(pyridin-3-ylmethyl)piperazin-1-yl)-3H-imidazo(4,5-b)pyridine] returned an inhibition at 10 µM of 70%. Further, at DYRK1A(h) (duplicate, average), the IC50 turned out to be 6.77 µM.

The compound `COC(=O)c1sc2ncnc(Nc3cccc(OC)c3)c2c1C` [Compound 2, methyl 4-((3-methoxyphenyl)amino)-5-methylthieno (2,3-d)pyrimidine-6-carboxylate] had an inhibition at 10 µM on DYRK1A(h) of 58%. At DYRK1A(h) (duplicate, average), the IC50 amounted to 5.71 µM.

Compound `O=C(O)c1cc2cc(Br)ccc2s1` [Compound 3, 5-bromobenzo[b]thiophene-2-carboxylic acid] showed an inhibition at 10 µM against DYRK1A(h) of 82%. Besides, the IC50 was approximately 3.2 µM at DYRK1A(h) (setting [1]) and 3.25 µM on DYRK1A(h) (duplicate, average).

`N#Cc1cccc2sc(C(=O)O)cc12` [Compound 4, 4-cyanobenzo[b]thiophene-2-carboxylic acid]: the inhibition at 10 µM at DYRK1A(h) turned out to be 71%. Also, the IC50 was approximately 3.2 µM at DYRK1A(h) (setting [1]) and 3.24 µM at DYRK1A(h) (duplicate, average).

Consider `COc1ccc(Nc2cc(C)nc(Nc3ccc(OC)cc3)n2)cc1` [Compound 5, N^2,N^4-bis(4-methoxyphenyl)-6-methylpyrimidine-2,4-diamine], for which, at DYRK1A(h), the “% inhibition at 10 μM” value came out at 27% and the inhibition at 10 µM is less than 40%.

Take `O=C(O)c1cccc(Nc2nc(-c3ccccc3)c3cc(Br)ccc3n2)c1` [Compound 6, 3-((6-bromo-4-phenylquinazolin-2-yl)amino)benzoic acid]: the inhibition at 10 µM against DYRK1A(h) is 76%. For the same compound, on DYRK1A(h) (duplicate, average), the IC50 came out at 5.83 µM.

Consider `COc1ccc(Nc2ncc(F)c(N3CCOCC3)n2)cc1` [Compound 7, 5-fluoro-N-(4-methoxyphenyl)-4-morpholinopyrimidin-2-amine], for which, on DYRK1A(h), the “% inhibition at 10 μM” value was determined as 33% and the inhibition at 10 µM is less than 40%.

For `CN[C@@H]1C[C@H]2O[C@@](C)([C@@H]1OC)n1c3ccccc3c3c4c(c5c6ccccc6n2c5c31)C(=O)NC4` [Staurosporine, staurosporine], the results for the IC50 with GSK3β (staurosporine) and with DYRK1A were […] and […], respectively.
